Results reported in patent publication US8952024B2, “Herbicidal pyrimidone derivatives” (E I du Pont de Nemours and Company, priority 2009, dated 2015).

How the values were obtained:
Experiment in all cases: Test B pre-/postemergence plant response
Format in all cases: in vivo
[1] = test system: johnsongrass (Sorghum halepense)
In short: (§1)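 Visually scored on a 0 to 100 scale after 13 to 15 days in greenhouse versus controls. Treatments were preemergence on seeded loam/sand soil and postemergence on 1- to 4-leaf plants.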

[2] = test system: cocklebur (Xanthium strumarium)
In short: as §1

soybean (Glycine max) = test system: soybean (Glycine max)
In short: as §1

[3] = test system: giant foxtail (Setaria faberii)
In short: as §1

[4] = test system: downy bromegrass (Bromus tectorum)
In short: as §1

kochia (Kochia scoparia) = details: Postemergence; for Plant response rating, Kochia: scale 0 (no effect) to 100 (complete control)
In short: as §1

corn (Zea mays) = test system: corn (Zea mays)
In short: as §1

[5] = test system: yellow nutsedge (Cyperus esculentus)
In short: as §1

[6] = test system: large crabgrass (Digitaria sanguinalis)
In short: as §1

[7] = test system: Surinam grass (Brachiaria decumbens)
In short: as §1

[8] = test system: green foxtail (Setaria viridis)
In short: as §1

wild oat (Avena fatua) = test system: wild oat (Avena fatua)
In short: as §1

[9] = test system: goosegrass (Eleusine indica)
In short: as §1

[10] = test system: woolly cupgrass (Eriochloa villosa)
In short: as §1

[11] = test system: morningglory (Ipomoea coccinea)
In short: as §1

[12] = test system: velvetleaf (Abutilon theophrasti)
In short: as §1

[13] = test system: blackgrass (Alopecurus myosuroides)
In short: as §1

[14] = 250 g ai/ha, Preemergence, 0 to 100 scale
[15] = Postemergence, 62 g ai/ha, scale 0 (no effect) to 100 (complete control), 13 to 15 days
[16] = Postemergence, 125 g ai/ha, visual rating after 13 to 15 days, scale 0 (no effect) to 100 (complete control)
[17] = Postemergence, 250 g ai/ha, scale 0 to 100
[18] = Preemergence, 31 g ai/ha, scale 0 to 100 (0 no effect, 100 complete control)
[19] = Preemergence, 62 g ai/ha, scale 0 to 100, 0 no effect, 100 complete control
[20] = Preemergence, 125 g ai/ha, 0 to 100 scale
[21] = Postemergence, 31 g ai/ha, scale 0 to 100 (0 no effect, 100 complete control)

Q: With Cc1ccc(-n2c(-c3cccc(Cl)c3)ncc(C(=O)C3=C(O)CCCC3=O)c2=O)cc1 [Compound 39] as the compound, how does the “Plant response rating, Johnsongrass” value [1, 14] read?
A: The value was 75.

Q: What about the “Plant response rating, Johnsongrass” value [1, 15] of the same compound?
A: The value was 65.

Q: And the “Plant response rating, Johnsongrass” value [1, 16]?
A: The value was 90.

Q: What about the “Johnsongrass plant response rating” value [1, 17] of the same compound?
A: The value was 98.

Q: And the “Plant response rating, Johnsongrass” value [1, 18]?
A: The value was 0.

Q: What about the “Plant response rating, Johnsongrass” value [1, 19] of the same compound?
A: Its value is 60.

Q: And the “Johnsongrass plant response rating” value [1, 20]?
A: The value was 65.

Q: What about the “Plant response rating, Cocklebur” value [2, 14] of the same compound?
A: Its value is 45.

Q: What about the “Plant response rating, Cocklebur” value [2, 21] of the same compound?
A: The value was 75.

Q: And the “Plant response rating, Cocklebur” value [2, 15]?
A: The value was 75.

Q: What about the “Plant response rating, Cocklebur” value [2, 16] of the same compound?
A: The value was 95.

Q: What about the “Cocklebur plant response rating” value [2, 17] of the same compound?
A: Its value is 98.

Q: What about the “Plant response rating, Cocklebur” value [2, 18] of the same compound?
A: The value was 0.

Q: What about the “Plant response rating, Soybean” value (soybean (Glycine max); [14]) of the same compound?
A: Its value is 0.

Q: And the “Plant response rating, Soybean” value (soybean (Glycine max); [15])?
A: The value was 95.

Q: What about the “Plant response rating, Soybean” value (soybean (Glycine max); [16]) of the same compound?
A: Its value is 98.

Q: What about the “Plant response rating, Soybean” value (soybean (Glycine max); [18]) of the same compound?
A: Its value is 0.

Q: What about the “Soybean plant response rating” value (soybean (Glycine max); [20]) of the same compound?
A: The value was 0.

Q: And the “Plant response rating, Foxtail, Giant” value [3, 14]?
A: Its value is 75.

Q: What about the “Plant response rating, Foxtail, Giant” value [3, 21] of the same compound?
A: Its value is 75.

Q: And the “Plant response rating, Foxtail, Giant” value [3, 15]?
A: Its value is 85.

Q: What about the “Plant response rating, Foxtail, Giant” value [3, 16] of the same compound?
A: Its value is 95.

Q: What about the “Foxtail, Giant plant response rating” value [3, 17] of the same compound?
A: The value was 95.

Q: What about the “Plant response rating, Foxtail, Giant” value [3, 18] of the same compound?
A: Its value is 0.

Q: And the “Plant response rating, Foxtail, Giant” value [3, 19]?
A: The value was 45.

Q: What about the “Foxtail, Giant plant response rating” value [3, 20] of the same compound?
A: Its value is 70.

Q: What about the “Plant response rating, Bromegrass, Downy” value [4, 14] of the same compound?
A: Its value is 0.

Q: What about the “Plant response rating, Bromegrass, Downy” value [4, 21] of the same compound?
A: Its value is 0.

Q: And the “Plant response rating, Bromegrass, Downy” value [4, 15]?
A: The value was 0.

Q: And the “Plant response rating, Bromegrass, Downy” value [4, 16]?
A: The value was 0.

Q: What about the “Bromegrass, Downy plant response rating” value [4, 17] of the same compound?
A: The value was 0.

Q: And the “Plant response rating, Bromegrass, Downy” value [4, 18]?
A: The value was 0.

Q: What about the “Plant response rating, Bromegrass, Downy” value [4, 19] of the same compound?
A: The value was 0.

Q: And the “Bromegrass, Downy plant response rating” value [4, 20]?
A: Its value is 0.

Q: What about the “Plant response rating, Kochia” value (kochia (Kochia scoparia); 62 g ai/ha, 13 to 15 days) of the same compound?
A: The value was 45.

Q: And the “Plant response rating, Kochia” value (kochia (Kochia scoparia); 125 g ai/ha, visual rating after 13 to 15 days)?
A: The value was 60.

Q: And the “Kochia plant response rating” value (kochia (Kochia scoparia); 250 g ai/ha, scale 0 to 100)?
A: The value was 95.

Q: And the “Plant response rating, Corn” value (corn (Zea mays); [14])?
A: The value was 0.

Q: What about the “Plant response rating, Corn” value (corn (Zea mays); [21]) of the same compound?
A: The value was 25.

Q: And the “Plant response rating, Corn” value (corn (Zea mays); [15])?
A: Its value is 45.

Q: What about the “Plant response rating, Corn” value (corn (Zea mays); [16]) of the same compound?
A: Its value is 45.

Q: What about the “Corn plant response rating” value (corn (Zea mays); [17]) of the same compound?
A: Its value is 65.

Q: And the “Plant response rating, Corn” value (corn (Zea mays); [18])?
A: The value was 0.

Q: What about the “Plant response rating, Corn” value (corn (Zea mays); [19]) of the same compound?
A: The value was 0.

Q: What about the “Corn plant response rating” value (corn (Zea mays); [20]) of the same compound?
A: Its value is 0.

Q: What about the “Plant response rating, Nutsedge, Yellow” value [5, 14] of the same compound?
A: Its value is 10.

Q: And the “Plant response rating, Nutsedge, Yellow” value [5, 15]?
A: The value was 0.

Q: And the “Plant response rating, Nutsedge, Yellow” value [5, 16]?
A: Its value is 15.

Q: What about the “Plant response rating, Nutsedge, Yellow” value [5, 18] of the same compound?
A: Its value is 0.

Q: What about the “Nutsedge, Yellow plant response rating” value [5, 20] of the same compound?
A: The value was 0.

Q: What about the “Plant response rating, Crabgrass, Large” value [6, 14] of the same compound?
A: The value was 100.

Q: What about the “Plant response rating, Crabgrass, Large” value [6, 21] of the same compound?
A: The value was 75.

Q: And the “Plant response rating, Crabgrass, Large” value [6, 15]?
A: The value was 80.

Q: What about the “Plant response rating, Crabgrass, Large” value [6, 16] of the same compound?
A: Its value is 85.

Q: What about the “Crabgrass, Large plant response rating” value [6, 17] of the same compound?
A: The value was 90.

Q: And the “Plant response rating, Crabgrass, Large” value [6, 18]?
A: The value was 55.

Q: What about the “Plant response rating, Crabgrass, Large” value [6, 19] of the same compound?
A: The value was 95.

Q: What about the “Crabgrass, Large plant response rating” value [6, 20] of the same compound?
A: Its value is 100.

Q: What about the “Plant response rating, Surinam Grass” value [7, 14] of the same compound?
A: Its value is 15.

Q: What about the “Plant response rating, Surinam Grass” value [7, 15] of the same compound?
A: The value was 65.

Q: What about the “Plant response rating, Surinam Grass” value [7, 16] of the same compound?
A: The value was 65.

Q: What about the “Plant response rating, Surinam Grass” value [7, 18] of the same compound?
A: The value was 0.

Q: What about the “Surinam Grass plant response rating” value [7, 20] of the same compound?
A: The value was 10.

Q: And the “Plant response rating, Foxtail, Green” value [8, 14]?
A: The value was 100.

Q: And the “Plant response rating, Foxtail, Green” value [8, 21]?
A: The value was 80.

Q: What about the “Plant response rating, Foxtail, Green” value [8, 15] of the same compound?
A: The value was 80.

Q: What about the “Plant response rating, Foxtail, Green” value [8, 16] of the same compound?
A: The value was 90.

Q: And the “Foxtail, Green plant response rating” value [8, 17]?
A: Its value is 90.

Q: And the “Foxtail, Green plant response rating” value [8, 20]?
A: Its value is 75.

Q: And the “Plant response rating, Oat, Wild” value (wild oat (Avena fatua); [14])?
A: Its value is 0.

Q: And the “Plant response rating, Oat, Wild” value (wild oat (Avena fatua); [15])?
A: Its value is 20.

Q: What about the “Plant response rating, Oat, Wild” value (wild oat (Avena fatua); [16]) of the same compound?
A: Its value is 30.

Q: And the “Plant response rating, Oat, Wild” value (wild oat (Avena fatua); [18])?
A: Its value is 0.

Q: What about the “Oat, Wild plant response rating” value (wild oat (Avena fatua); [20]) of the same compound?
A: Its value is 0.

Q: And the “Plant response rating, Goosegrass” value [9, 14]?
A: The value was 100.

Q: What about the “Plant response rating, Goosegrass” value [9, 15] of the same compound?
A: Its value is 55.

Q: And the “Plant response rating, Goosegrass” value [9, 16]?
A: Its value is 65.

Q: And the “Goosegrass plant response rating” value [9, 17]?
A: Its value is 75.

Q: And the “Plant response rating, Goosegrass” value [9, 18]?
A: The value was 85.

Q: And the “Goosegrass plant response rating” value [9, 20]?
A: The value was 100.

Q: And the “Plant response rating, Cupgrass, Woolly” value [10, 14]?
A: Its value is 10.

Q: What about the “Plant response rating, Cupgrass, Woolly” value [10, 21] of the same compound?
A: Its value is 65.

Q: What about the “Plant response rating, Cupgrass, Woolly” value [10, 15] of the same compound?
A: Its value is 85.

Q: What about the “Plant response rating, Cupgrass, Woolly” value [10, 16] of the same compound?
A: Its value is 85.

Q: What about the “Cupgrass, Woolly plant response rating” value [10, 17] of the same compound?
A: The value was 90.

Q: What about the “Plant response rating, Cupgrass, Woolly” value [10, 18] of the same compound?
A: The value was 0.

Q: And the “Plant response rating, Cupgrass, Woolly” value [10, 19]?
A: The value was 0.

Q: And the “Cupgrass, Woolly plant response rating” value [10, 20]?
A: The value was 0.

Q: And the “Plant response rating, Morningglory” value [11, 14]?
A: The value was 100.

Q: And the “Plant response rating, Morningglory” value [11, 15]?
A: Its value is 75.

Q: And the “Plant response rating, Morningglory” value [11, 16]?
A: Its value is 75.

Q: And the “Plant response rating, Morningglory” value [11, 18]?
A: Its value is 0.

Q: What about the “Plant response rating, Morningglory” value [11, 19] of the same compound?
A: Its value is 0.

Q: What about the “Morningglory plant response rating” value [11, 20] of the same compound?
A: The value was 15.

Q: What about the “Plant response rating, Velvetleaf” value [12, 14] of the same compound?
A: Its value is 98.

Q: And the “Plant response rating, Velvetleaf” value [12, 15]?
A: Its value is 80.

Q: And the “Plant response rating, Velvetleaf” value [12, 16]?
A: The value was 80.

Q: And the “Plant response rating, Velvetleaf” value [12, 18]?
A: The value was 15.

Q: What about the “Velvetleaf plant response rating” value [12, 20] of the same compound?
A: Its value is 75.

Q: What about the “Plant response rating, Blackgrass” value [13, 14] of the same compound?
A: The value was 0.

Q: What about the “Plant response rating, Blackgrass” value [13, 21] of the same compound?
A: Its value is 0.

Q: What about the “Plant response rating, Blackgrass” value [13, 15] of the same compound?
A: The value was 0.

Q: And the “Plant response rating, Blackgrass” value [13, 16]?
A: The value was 0.

Q: And the “Blackgrass plant response rating” value [13, 17]?
A: The value was 20.

Q: And the “Plant response rating, Blackgrass” value [13, 18]?
A: Its value is 0.

Q: What about the “Plant response rating, Blackgrass” value [13, 19] of the same compound?
A: The value was 0.

Q: What about the “Blackgrass plant response rating” value [13, 20] of the same compound?
A: Its value is 0.
